Measured values: US20220177508A1, “C10-Cyclic Substituted 13-Membered Macrolides and Uses Thereof” (Zikani Therapeutics, Inc., priority 2018, published 2022)
In brackets after ≈: the same amount, converted by molar mass.

Columns and labels:
Type in all cases: cell-based
[1] = system: S. aureus MP-12; experiment: Broth dilution MIC determination (CLSI), S. aureus MP-12; settings: Staphylococcus aureus, MP12; strain MP-12, broth dilution
[2] = system: K. pneumoniae MP-546; experiment: Broth dilution MIC determination (CLSI), K. pneumoniae MP-546; settings: Klebsiella pneumoniae, MP546; strain MP-546, broth dilution
[3] = system: E. coli MP-4; experiment: Broth dilution MIC determination (CLSI), E. coli MP-4; settings: Escherichia coli, MP4; strain MP-4, broth dilution; read-out: MIC E. coli MP-4
[4] = system: A. baumannii MP-15; experiment: Broth dilution MIC determination (CLSI), A. baumannii MP-15; settings: Acinetobacter baumannii, MP15; strain MP-15, broth dilution; read-out: MIC A. baumanii MP-15
[5] = system: P. aeruginosa MP-3; experiment: Broth dilution MIC determination (CLSI), P. aeruginosa MP-3; settings: Pseudomonas aeruginosa, MP3; strain MP-3, broth dilution

Row | SMILES | MIC [1] [µg/mL] | MIC [2] [µg/mL] | MIC [3] [µg/mL] | MIC [4] [µg/mL] | MIC [5] [µg/mL]
1 | CO[C@]1(C)C[C@@H](C)CN(C)[C@H](c2ccc(Br)cc2)COC(=O)C(C)(C)C(=O)[C@H](C)[C@H]1O[C@@H]1O[C@H](C)C[C@H](N(C)C)[C@H]1O [Compound 33, (3R,6R,8R,9R,10R)-3-(4-bromophenyl)-9-(((2S,3R,4S,6R)-4-(dimethylamino)-3-hydroxy-6-methyltetrahydro-2H-pyran-2-yl)oxy)-8-methoxy-4,6,8,10,12,12-hexamethyl-1-oxa-4-azacyclotridecane-11,13-dione] | > 32 | > 32 | 4 to 32 (≈ 6.1 to 48.8 µM) | > 32 | > 32
2 | CO[C@]1(C)C[C@@H](C)CN(C)[C@@H]([C@H]2CCCN(C(=O)CN(C)C)C2)COC(=O)C(C)(C)C(=O)[C@H](C)[C@H]1O[C@@H]1O[C@H](C)C[C@H](N(C)C)[C@H]1O [Compound 34, (3S,6R,8R,9R,10R)-9-(((2S,3R,4S,6R)-4-(dimethylamino)-3-hydroxy-6-methyltetrahydro-2H-pyran-2-yl)oxy)-3-((S)-1-(dimethylglycyl)piperidin-3-yl)-8-methoxy-4,6,8,10,12,12-hexamethyl-1-oxa-4-azacyclotridecane-11,13-dione] | > 32 | > 32 | 4 to 32 (≈ 5.98 to 47.8 µM) | > 32 | > 32
3 | CO[C@]1(C)C[C@@H](C)CN(C)[C@H](C2CN(C(C)C)C2)COC(=O)C(C)(C)C(=O)[C@H](C)[C@H]1O[C@@H]1O[C@H](C)C[C@H](N(C)C)[C@H]1O [Compound 35, (3R,6R,8R,9R,10R)-9-(((2S,3R,4S,6R)-4-(dimethylamino)-3-hydroxy-6-methyltetrahydro-2H-pyran-2-yl)oxy)-3-(1-isopropylazetidin-3-yl)-8-methoxy-4,6,8,10,12,12-hexamethyl-1-oxa-4-azacyclotridecane-11,13-dione] | > 32 | 4 to 32 (≈ 6.69 to 53.5 µM) | < 4 | > 32 | > 32
4 | CO[C@]1(C)C[C@@H](C)CN(C)[C@H](C2CN(CC(=O)NC(C)C)C2)COC(=O)C(C)(C)C(=O)[C@H](C)[C@H]1O[C@@H]1O[C@H](C)C[C@H](N(C)C)[C@H]1O [Compound 36, 2-(3-((3R,6R,8R,9R,10R)-9-(((2S,3R,4S,6R)-4-(dimethylamino)-3-hydroxy-6-methyltetrahydro-2H-pyran-2-yl)oxy)-8-methoxy-4,6,8,10,12,12-hexamethyl-11,13-dioxo-1-oxa-4-azacyclotridecan-3-yl)azetidin-1-yl)-N-isopropylacetamide] | > 32 | 4 to 32 (≈ 6.11 to 48.9 µM) | 4 to 32 (≈ 6.11 to 48.9 µM) | > 32 | > 32
5 | CCN1C[C@H](C)C[C@@](C)(OC)[C@H](O[C@@H]2O[C@H](C)C[C@H](N(C)C)[C@H]2O)[C@@H](C)C(=O)C(C)(C)C(=O)OC[C@H]1C1CN(C(=O)CN(C)C)C1 [Compound 38, (3R,6R,8R,9R,10R)-9-(((2S,3R,4S,6R)-4-(dimethylamino)-3-hydroxy-6-methyltetrahydro-2H-pyran-2-yl)oxy)-3-(1-(dimethylglycyl)azetidin-3-yl)-4-ethyl-8-methoxy-6,8,10,12,12-pentamethyl-1-oxa-4-azacyclotridecane-11,13-dione] | 4 to 32 (≈ 6.11 to 48.9 µM) | 4 to 32 (≈ 6.11 to 48.9 µM) | < 4 | > 32 | > 32
6 | CO[C@]1(C)C[C@@H](C)CN(C)[C@H]([C@H]2CCCN(CC(C)C)C2)COC(=O)C(C)(C)C(=O)[C@H](C)[C@H]1O[C@@H]1O[C@H](C)C[C@H](N(C)C)[C@H]1O [Compound 39, (3R,6R,8R,9R,10R)-9-(((2S,3R,4S,6R)-4-(Dimethylamino)-3-hydroxy-6-methyltetrahydro-2H-pyran-2-yl)oxy)-3-((S)-1-isobutylpiperidin-3-yl)-8-methoxy-4,6,8,10,12,12-hexamethyl-1-oxa-4-azacyclotridecane-11,13-dione] | 4 to 32 (≈ 6.25 to 50 µM) | 4 to 32 (≈ 6.25 to 50 µM) | 4 to 32 (≈ 6.25 to 50 µM) | > 32 | > 32
7 | CO[C@]1(C)C[C@@H](C)CN(C)[C@@H]([C@H]2CCNC2)COC(=O)C(C)(C)C(=O)[C@H](C)[C@H]1O[C@@H]1O[C@H](C)C[C@H](N(C)C)[C@H]1O [Compound 40, (3S,6R,8R,9R,10R)-9-(((2S,3R,4S,6R)-4-(Dimethylamino)-3-hydroxy-6-methyltetrahydro-2H-pyran-2-yl)oxy)-8-methoxy-4,6,8,10,12,12-hexamethyl-3-((S)-pyrrolidin-3-yl)-1-oxa-4-azacyclotridecane-11,13-dione] | 4 to 32 (≈ 7.02 to 56.2 µM) | < 4 | < 4 | > 32 | > 32
8 | CO[C@]1(C)C[C@@H](C)CN(C)[C@H](c2ccccc2)COC(=O)C(C)(C)C(=O)[C@H](C)[C@H]1O[C@@H]1O[C@H](C)C[C@H](N(C)C)[C@H]1O [Compound 42, (3R,6R,8R,9R,10R)-9-(((2S,3R,4S,6R)-4-(Dimethylamino)-3-hydroxy-6-methyltetrahydro-2H-pyran-2-yl)oxy)-8-methoxy-4,6,8,10,12,12-hexamethyl-3-phenyl-1-oxa-4-azacyclotridecane-11,13-dione] | > 32 | > 32 | 4 to 32 (≈ 6.94 to 55.5 µM) | > 32 | > 32
9 | CNCC(=O)N1C2CCC1CC([C@@H]1COC(=O)C(C)(C)C(=O)[C@H](C)[C@@H](O[C@@H]3O[C@H](C)C[C@H](N(C)C)[C@H]3O)[C@](C)(OC)C[C@@H](C)CN1C)C2 (stereo partly drawn) [Compound 44, (3R,6R,8R,9R,10R)-9-(((2S,3R,4S,6R)-4-(dimethylamino)-3-hydroxy-6-methyltetrahydro-2H-pyran-2-yl)oxy)-8-methoxy-4,6,8,10,12,12-hexamethyl-3-(8-(methylglycyl)-8-azabicyclo[3.2.1]octan-3-yl)-1-oxa-4-azacyclotridecane-11,13-dione] | > 32 | > 32 | 4 to 32 (≈ 5.87 to 47 µM) | > 32 | > 32

Second part, the compound after the results:

Row | MIC [1] [µg/mL] | MIC [2] [µg/mL] | MIC [3] [µg/mL] | MIC [4] [µg/mL] | MIC [5] [µg/mL] | SMILES
10 | 4 to 32 (≈ 6.69 to 53.5 µM) | < 4 | < 4 | > 32 | > 32 | CO[C@]1(C)C[C@@H](C)CN(C)[C@H](C2CCN(C)CC2)COC(=O)C(C)(C)C(=O)[C@H](C)[C@H]1O[C@@H]1O[C@H](C)C[C@H](N(C)C)[C@H]1O [Compound 43, (3R,6R,8R,9R,10R)-9-(((2S,3R,4S,6R)-4-(dimethylamino)-3-hydroxy-6-methyltetrahydro-2H-pyran-2-yl)oxy)-8-methoxy-4,6,8,10,12,12-hexamethyl-3-(1-methylpiperidin-4-yl)-1-oxa-4-azacyclotridecane-11,13-dione]
11 | 4 to 32 (≈ 6 to 48 µM) | 4 to 32 (≈ 6 to 48 µM) | < 4 | > 32 | > 32 | CO[C@]1(C)C[C@@H](C)CN(C)[C@H](C2CN(CC(=O)N3CCCC3)C2)COC(=O)C(C)(C)C(=O)[C@H](C)[C@H]1O[C@@H]1O[C@H](C)C[C@H](N(C)C)[C@H]1O [Compound 45, (3R,6R,8R,9R,10R)-9-(((2S,3R,4S,6R)-4-(dimethylamino)-3-hydroxy-6-methyltetrahydro-2H-pyran-2-yl)oxy)-8-methoxy-4,6,8,10,12,12-hexamethyl-3-(1-(2-oxo-2-(pyrrolidin-1-yl)ethyl)azetidin-3-yl)-1-oxa-4-azacyclotridecane-11,13-dione]
12 | > 32 | 4 to 32 (≈ 6.54 to 52.3 µM) | < 4 | > 32 | > 32 | CO[C@]1(C)C[C@@H](C)CN(C)[C@H]([C@@H]2CCN(C(C)C)C2)COC(=O)C(C)(C)C(=O)[C@H](C)[C@H]1O[C@@H]1O[C@H](C)C[C@H](N(C)C)[C@H]1O [Compound 46, (3R,6R,8R,9R,10R)-9-(((2S,3R,4S,6R)-4-(Dimethylamino)-3-hydroxy-6-methyltetrahydro-2H-pyran-2-yl)oxy)-3-((R)-1-isopropylpyrrolidin-3-yl)-8-methoxy-4,6,8,10,12,12-hexamethyl-1-oxa-4-azacyclotridecane-11,13-dione]
13 | > 32 | > 32 | 4 to 32 (≈ 6.69 to 53.5 µM) | > 32 | > 32 | CO[C@]1(C)C[C@@H](C)CN(C)[C@H](C2CCNCC2)[C@H](C)OC(=O)C(C)(C)C(=O)[C@H](C)[C@H]1O[C@@H]1O[C@H](C)C[C@H](N(C)C)[C@H]1O [Compound 47, (2S,3R,6R,8R,9R,10R)-9-(((2S,3R,4S,6R)-4-(dimethylamino)-3-hydroxy-6-methyltetrahydro-2H-pyran-2-yl)oxy)-8-methoxy-2,4,6,8,10,12,12-heptamethyl-3-(piperidin-4-yl)-1-oxa-4-azacyclotridecane-11,13-dione]
14 | 4 to 32 (≈ 6.85 to 54.8 µM) | < 4 | < 4 | > 32 | > 32 | CO[C@]1(C)C[C@@H](C)CN(C)[C@@H]([C@H]2CCN(C)C2)COC(=O)C(C)(C)C(=O)[C@H](C)[C@H]1O[C@@H]1O[C@H](C)C[C@H](N(C)C)[C@H]1O [Compound 48, (3S,6R,8R,9R,10R)-9-(((2S,3R,4S,6R)-4-(Dimethylamino)-3-hydroxy-6-methyltetrahydro-2H-pyran-2-yl)oxy)-8-methoxy-4,6,8,10,12,12-hexamethyl-3-((S)-1-methylpyrrolidin-3-yl)-1-oxa-4-azacyclotridecane-11,13-dione]
15 | > 32 | 4 to 32 (≈ 6.11 to 48.9 µM) | < 4 | > 32 | > 32 | CO[C@]1(C)C[C@@H](C)CN(C)[C@@H](C2CN(C(=O)[C@@H](C)N(C)C)C2)COC(=O)C(C)(C)C(=O)[C@H](C)[C@H]1O[C@@H]1O[C@H](C)C[C@H](N(C)C)[C@H]1O [Compound 52, (3S,6R,8R,9R,10R)-3-(1-(dimethyl-D-alanyl)azetidin-3-yl)-9-(((2S,3R,4S,6R)-4-(dimethylamino)-3-hydroxy-6-methyltetrahydro-2H-pyran-2-yl)oxy)-8-methoxy-4,6,8,10,12,12-hexamethyl-1-oxa-4-azacyclotridecane-11,13-dione]
